Experimental data published in patent US20100292231A1, “Indazole Compounds for Treating Inflammatory Disorders, Demyelinating Disorders and Cancers” (priority 2007, published 2010).
Read-outs that look alike come from different tables or passages of the source.

Experiments:
Assay in all cases: SelectScreen kinase specificity survey
Assay type in all cases: biochemical
MAPK8 (JNK1) = target: T1, MAPK8 (JNK1) (Homo sapiens, UniProt P45983); conditions: estimated, abridged dose response curve, read-out: Kinase inhibitory activity EC50
T1 construct: purchased Invitrogen, Inc. (SelectScreen service)
Procedure: (§1) Testing of the compounds described in this invention was carried out using the SelectScreen™ platform from Invitrogen, Inc. (Carlsbad. Calif., USA) and the details of its performance are readily viewed via the web by linking to: http://www.invitrogen.com/downloads/SelectScrn_Brochure.pdf.
(§2) Briefly, the approach is based on treating each specific kinase with a unique substrate and optical reporter system in the presence of ATP at 100 micromolar. In controls, the substrate is phosphorylated and a baseline optimal response is recorded.
(§3) The compounds were then re-tested by adding graded amounts of putative inhibitor which were added in 5 separate increments to generate a dose response curve. The latter is obtained by fitting to a 4 parameter Hill equation, a sigmoid saturation equation.
(§4) The same assay system described in Example 2 can be applied in the determination of kinase specificity. It is well understood by medicinal chemists in the development of kinase inhibitors that the resulting molecules often lack specificity. Not only are homologous kinases inhibited by the same class of compounds, but also non-homologous kinases can be affected by allosteric, induced, activated vs inactivated conformation, and protein folding interactions with the putative inhibitor, which otherwise had been designed to be specific. These off target effects are difficult to predict and can only be ruled in or out by empirically surveying a large set of kinases. It is also understood that changes to scaffolds and variation in their chemical decorations may influence the extent of promiscuity in the patterns of kinase inhibition across kinase classes.
(§5) The following experiment was conducted to address this issue. The indazole compound (IV), described in Example 2 and representative of the new genus was tested along with Symadex against a panel of 230 kinases representative of all known kinases classes. Included in the survey were the Flt3, its mutant, and close relatives in the Class III receptor tyrosine kinase class, together with serine-threonine kinases and atypical kinases many of which share no homology of active site with Flt3 as shown, for example, in the respective “genecard” for each kinase and available for inspection at on the web at http://www.genecards.org/.
(§6) Table 3 lists the estimated EC50 values from an abridged dose response curve for Symadex (C-1311) and CF-123. The kinases are listed alphabetically by Group and Family.

EGFR (ErbB1) T790M = target: T2, EGFR (ErbB1) T790M (Homo sapiens, UniProt P00533, T790M); conditions: estimated, abridged dose response curve, read-out: Kinase inhibitory activity EC50
T2 construct: purchased Invitrogen (SelectScreen service)
Procedure: as §1, §2, §3, §4, §5, §6

FGFR1 = target: T3, FGFR1 (Homo sapiens, UniProt P11362); conditions: estimated, abridged dose response curve, read-out: Kinase inhibitory activity EC50
T3 construct: purchased Invitrogen (SelectScreen service)
Procedure: as §1, §2, §3, §4, §5, §6

BRSK1 (SAD1) = target: T4, BRSK1 (SAD1) (Homo sapiens, UniProt Q8TDC3)
T4 construct: purchased Invitrogen, Inc. (SelectScreen platform)
Procedure: as §1, §2, §3, §4, §5, §6

MAPK11 (p38 beta) = target: T5, MAPK11 (p38 beta) (Homo sapiens, UniProt Q15759); conditions: estimated, abridged dose response curve, read-out: Kinase inhibitory activity EC50
T5 construct: purchased Invitrogen (SelectScreen platform)
Procedure: as §1, §2, §3, §4, §5, §6

PHKG1 = target: T6, PHKG1 (Homo sapiens, UniProt Q16816); conditions: estimated, abridged dose response curve, read-out: Kinase inhibitory activity EC50
T6 construct: purchased Invitrogen, Inc. (SelectScreen platform)
Procedure: as §1, §2, §3, §4, §5, §6

TBK1 = target: T7, TBK1 (Homo sapiens, UniProt Q9UHD2); conditions: estimated, abridged dose response curve, read-out: Kinase inhibitory activity EC50
T7 construct: purchased Invitrogen, Inc. (SelectScreen service)
Procedure: as §1, §2, §3, §4, §5, §6

FER = target: T8, FER (Homo sapiens, UniProt P16591); conditions: estimated, abridged dose response curve, read-out: Kinase inhibitory activity EC50
T8 construct: purchased Invitrogen (SelectScreen service)
Procedure: as §1, §2, §3, §4, §5, §6

ROS1 (ROS) = target: T9, ROS1 (ROS) (Homo sapiens, UniProt P08922); conditions: estimated, abridged dose response curve, read-out: Kinase inhibitory activity EC50
T9 construct: purchased Invitrogen (SelectScreen)
Procedure: as §1, §2, §3, §4, §5, §6

CSNK1A1 (CK1 alpha 1) = target: T10, CSNK1A1 (CK1 alpha 1) (Homo sapiens, UniProt P48729); conditions: estimated, abridged dose response curve, read-out: Kinase inhibitory activity EC50
T10 construct: purchased Invitrogen (SelectScreen platform)
Procedure: as §1, §2, §3, §4, §5, §6

ALK = target: T11, ALK (Homo sapiens, UniProt Q9UM73); conditions: estimated, abridged dose response curve, read-out: Kinase inhibitory activity EC50
T11 construct: purchased Invitrogen (SelectScreen platform)
Procedure: as §1, §2, §3, §4, §5, §6

PASK = target: T12, PASK (Homo sapiens, UniProt Q96RG2); conditions: estimated, abridged dose response curve, read-out: Kinase inhibitory activity EC50
T12 construct: purchased Invitrogen, Inc. (SelectScreen platform)
Procedure: as §1, §2, §3, §4, §5, §6

FGFR3 K650E = target: T13, FGFR3 K650E (Homo sapiens, UniProt P22607, K650E); conditions: estimated, abridged dose response curve, read-out: Kinase inhibitory activity EC50
T13 construct: purchased Invitrogen (SelectScreen platform)
Procedure: as §1, §2, §3, §4, §5, §6

BLK = target: T14, BLK (Homo sapiens, UniProt P51451); conditions: estimated, abridged dose response curve, read-out: Kinase inhibitory activity EC50
T14 construct: purchased Invitrogen (SelectScreen)
Procedure: as §1, §2, §3, §4, §5, §6

DYRK1A = target: T15, DYRK1A (Homo sapiens, UniProt Q13627); conditions: estimated, abridged dose response curve, read-out: Kinase inhibitory activity EC50
T15 construct: purchased Invitrogen (SelectScreen platform)
Procedure: as §1, §2, §3, §4, §5, §6

IRAK4 = target: T16, IRAK4 (Homo sapiens, UniProt Q9NWZ3); conditions: estimated, abridged dose response curve, read-out: Kinase inhibitory activity EC50
T16 construct: purchased Invitrogen, Inc. (SelectScreen platform)
Procedure: as §1, §2, §3, §4, §5, §6

STK22B (TSSK2) = target: T17, STK22B (TSSK2) (Homo sapiens, UniProt Q96PF2); conditions: estimated, abridged dose response curve, read-out: Kinase inhibitory activity EC50
T17 construct: purchased Invitrogen, Inc. (SelectScreen platform)
Procedure: as §1, §2, §3, §4, §5, §6

ABL2 (Arg) = target: T18, ABL2 (Arg) (Homo sapiens, UniProt P42684); conditions: estimated, abridged dose response curve, read-out: Kinase inhibitory activity EC50
T18 construct: purchased Invitrogen (SelectScreen platform)
Procedure: as §1, §2, §3, §4, §5, §6

ROCK1 = target: T19, ROCK1 (Homo sapiens, UniProt Q13464); conditions: estimated, abridged dose response curve, read-out: Kinase inhibitory activity EC50
T19 construct: purchased Invitrogen (SelectScreen platform)
Procedure: as §1, §2, §3, §4, §5, §6

PRKCQ (PKC theta) = target: T20, PRKCQ (PKC theta) (Homo sapiens, UniProt Q04759); conditions: estimated, abridged dose response curve, read-out: Kinase inhibitory activity EC50
T20 construct: purchased Invitrogen, Inc. (SelectScreen platform)
Procedure: as §1, §2, §3, §4, §5, §6

MET (cMet) = target: T21, MET (cMet) (Homo sapiens, UniProt P08581); conditions: estimated, abridged dose response curve, read-out: Kinase inhibitory activity EC50
T21 construct: purchased Invitrogen (SelectScreen platform)
Procedure: as §1, §2, §3, §4, §5, §6

FES (FPS) = target: T22, FES (FPS) (Homo sapiens, UniProt P07332); conditions: estimated, abridged dose response curve, read-out: Kinase inhibitory activity EC50
T22 construct: purchased Invitrogen (SelectScreen service)
Procedure: as §1, §2, §3, §4, §5, §6

EGFR (ErbB1) L861Q = target: T23, EGFR (ErbB1) L861Q (Homo sapiens, UniProt P00533, L861Q); conditions: estimated, abridged dose response curve, read-out: Kinase inhibitory activity EC50
T23 construct: purchased Invitrogen (SelectScreen service)
Procedure: as §1, §2, §3, §4, §5, §6

TAOK2 (TAO1) = target: T24, TAOK2 (TAO1) (Homo sapiens, UniProt Q9UL54); conditions: estimated, abridged dose response curve, read-out: Kinase inhibitory activity EC50
T24 construct: purchased Invitrogen (SelectScreen platform)
Procedure: as §1, §2, §3, §4, §5, §6

SRPK1 = target: T25, SRPK1 (Homo sapiens, UniProt Q96SB4); conditions: estimated, abridged dose response curve, read-out: Kinase inhibitory activity EC50
T25 construct: purchased Invitrogen, Inc. (SelectScreen service)
Procedure: as §1, §2, §3, §4, §5, §6

CLK2 = target: T26, CLK2 (Homo sapiens, UniProt P49760); conditions: estimated, abridged dose response curve, read-out: Kinase inhibitory activity EC50
T26 construct: purchased Invitrogen (SelectScreen platform)
Procedure: as §1, §2, §3, §4, §5, §6

LCK = target: T27, LCK (Homo sapiens, UniProt P06239); conditions: estimated, abridged dose response curve, read-out: Kinase inhibitory activity EC50
T27 construct: purchased Invitrogen (SelectScreen)
Procedure: as §1, §2, §3, §4, §5, §6

T23 sequence (P00533 25-1210 L861Q): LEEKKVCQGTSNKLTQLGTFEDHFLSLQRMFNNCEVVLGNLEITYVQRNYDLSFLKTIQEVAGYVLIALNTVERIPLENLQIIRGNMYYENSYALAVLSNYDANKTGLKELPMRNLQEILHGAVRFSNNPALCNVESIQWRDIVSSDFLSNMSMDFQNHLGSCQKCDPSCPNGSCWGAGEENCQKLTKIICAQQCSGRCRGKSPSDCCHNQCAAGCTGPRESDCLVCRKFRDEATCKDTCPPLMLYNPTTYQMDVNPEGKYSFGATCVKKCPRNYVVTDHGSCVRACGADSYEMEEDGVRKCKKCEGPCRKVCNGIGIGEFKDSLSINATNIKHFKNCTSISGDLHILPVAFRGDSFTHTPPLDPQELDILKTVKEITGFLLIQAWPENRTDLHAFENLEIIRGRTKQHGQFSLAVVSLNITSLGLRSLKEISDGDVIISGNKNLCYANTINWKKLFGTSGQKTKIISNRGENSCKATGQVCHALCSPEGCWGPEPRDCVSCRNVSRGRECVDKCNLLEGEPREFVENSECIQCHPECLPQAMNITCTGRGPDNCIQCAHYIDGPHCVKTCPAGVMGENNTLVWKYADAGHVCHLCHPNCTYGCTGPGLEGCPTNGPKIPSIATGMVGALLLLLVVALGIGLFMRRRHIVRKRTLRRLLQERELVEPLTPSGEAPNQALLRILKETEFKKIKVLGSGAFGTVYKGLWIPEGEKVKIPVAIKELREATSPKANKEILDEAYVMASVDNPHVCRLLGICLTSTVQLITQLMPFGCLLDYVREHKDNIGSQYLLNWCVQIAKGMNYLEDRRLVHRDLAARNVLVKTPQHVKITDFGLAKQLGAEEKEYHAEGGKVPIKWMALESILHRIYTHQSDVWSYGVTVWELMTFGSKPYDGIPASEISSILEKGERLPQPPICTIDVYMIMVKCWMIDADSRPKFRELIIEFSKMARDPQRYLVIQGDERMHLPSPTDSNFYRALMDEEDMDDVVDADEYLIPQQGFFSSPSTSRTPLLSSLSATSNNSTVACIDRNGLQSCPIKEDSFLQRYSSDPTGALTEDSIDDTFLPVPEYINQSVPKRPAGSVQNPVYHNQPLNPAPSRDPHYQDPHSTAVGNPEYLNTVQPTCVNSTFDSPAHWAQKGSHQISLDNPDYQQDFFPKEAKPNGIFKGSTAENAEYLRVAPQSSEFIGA
T1 sequence (P45983 whole entry): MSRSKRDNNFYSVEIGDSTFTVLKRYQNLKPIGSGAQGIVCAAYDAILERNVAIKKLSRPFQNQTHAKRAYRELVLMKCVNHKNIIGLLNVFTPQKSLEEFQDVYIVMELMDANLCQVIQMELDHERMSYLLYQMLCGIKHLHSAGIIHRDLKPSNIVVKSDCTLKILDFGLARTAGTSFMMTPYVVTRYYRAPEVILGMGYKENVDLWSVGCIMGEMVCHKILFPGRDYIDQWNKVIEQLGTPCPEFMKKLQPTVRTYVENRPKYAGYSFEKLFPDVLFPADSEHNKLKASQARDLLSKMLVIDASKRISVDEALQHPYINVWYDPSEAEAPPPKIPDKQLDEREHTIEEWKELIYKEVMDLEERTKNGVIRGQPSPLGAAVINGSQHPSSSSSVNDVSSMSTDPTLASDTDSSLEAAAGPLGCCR
T20 sequence (Q04759 whole entry): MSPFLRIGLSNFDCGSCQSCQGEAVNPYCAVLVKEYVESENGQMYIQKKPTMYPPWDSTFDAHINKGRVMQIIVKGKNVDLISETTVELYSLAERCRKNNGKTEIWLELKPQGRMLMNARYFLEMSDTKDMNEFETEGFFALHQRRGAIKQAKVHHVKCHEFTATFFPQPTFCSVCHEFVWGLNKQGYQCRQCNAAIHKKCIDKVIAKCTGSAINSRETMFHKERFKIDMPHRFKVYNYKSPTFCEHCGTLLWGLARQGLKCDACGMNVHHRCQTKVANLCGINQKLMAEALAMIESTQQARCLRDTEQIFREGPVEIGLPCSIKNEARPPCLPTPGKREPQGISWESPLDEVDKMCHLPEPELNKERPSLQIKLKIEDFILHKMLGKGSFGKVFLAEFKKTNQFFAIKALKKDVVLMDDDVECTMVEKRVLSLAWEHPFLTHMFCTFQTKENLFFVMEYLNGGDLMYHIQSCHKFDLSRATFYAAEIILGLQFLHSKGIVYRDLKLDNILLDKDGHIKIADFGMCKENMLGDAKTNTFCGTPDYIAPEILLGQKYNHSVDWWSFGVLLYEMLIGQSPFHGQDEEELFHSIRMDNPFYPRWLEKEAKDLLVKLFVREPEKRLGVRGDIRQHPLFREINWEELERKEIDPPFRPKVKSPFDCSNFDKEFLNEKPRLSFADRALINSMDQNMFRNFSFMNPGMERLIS
T10 sequence (P48729 whole entry): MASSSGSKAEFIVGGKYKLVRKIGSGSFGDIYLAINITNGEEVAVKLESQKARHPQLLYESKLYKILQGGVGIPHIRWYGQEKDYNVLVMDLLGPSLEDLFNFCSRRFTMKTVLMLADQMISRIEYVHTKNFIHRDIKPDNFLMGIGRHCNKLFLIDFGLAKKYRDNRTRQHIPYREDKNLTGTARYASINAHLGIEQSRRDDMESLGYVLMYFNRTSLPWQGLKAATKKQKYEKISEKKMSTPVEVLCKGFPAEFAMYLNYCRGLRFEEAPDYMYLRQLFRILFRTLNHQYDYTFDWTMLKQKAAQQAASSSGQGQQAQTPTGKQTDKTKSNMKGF
T19 sequence (Q13464 whole entry): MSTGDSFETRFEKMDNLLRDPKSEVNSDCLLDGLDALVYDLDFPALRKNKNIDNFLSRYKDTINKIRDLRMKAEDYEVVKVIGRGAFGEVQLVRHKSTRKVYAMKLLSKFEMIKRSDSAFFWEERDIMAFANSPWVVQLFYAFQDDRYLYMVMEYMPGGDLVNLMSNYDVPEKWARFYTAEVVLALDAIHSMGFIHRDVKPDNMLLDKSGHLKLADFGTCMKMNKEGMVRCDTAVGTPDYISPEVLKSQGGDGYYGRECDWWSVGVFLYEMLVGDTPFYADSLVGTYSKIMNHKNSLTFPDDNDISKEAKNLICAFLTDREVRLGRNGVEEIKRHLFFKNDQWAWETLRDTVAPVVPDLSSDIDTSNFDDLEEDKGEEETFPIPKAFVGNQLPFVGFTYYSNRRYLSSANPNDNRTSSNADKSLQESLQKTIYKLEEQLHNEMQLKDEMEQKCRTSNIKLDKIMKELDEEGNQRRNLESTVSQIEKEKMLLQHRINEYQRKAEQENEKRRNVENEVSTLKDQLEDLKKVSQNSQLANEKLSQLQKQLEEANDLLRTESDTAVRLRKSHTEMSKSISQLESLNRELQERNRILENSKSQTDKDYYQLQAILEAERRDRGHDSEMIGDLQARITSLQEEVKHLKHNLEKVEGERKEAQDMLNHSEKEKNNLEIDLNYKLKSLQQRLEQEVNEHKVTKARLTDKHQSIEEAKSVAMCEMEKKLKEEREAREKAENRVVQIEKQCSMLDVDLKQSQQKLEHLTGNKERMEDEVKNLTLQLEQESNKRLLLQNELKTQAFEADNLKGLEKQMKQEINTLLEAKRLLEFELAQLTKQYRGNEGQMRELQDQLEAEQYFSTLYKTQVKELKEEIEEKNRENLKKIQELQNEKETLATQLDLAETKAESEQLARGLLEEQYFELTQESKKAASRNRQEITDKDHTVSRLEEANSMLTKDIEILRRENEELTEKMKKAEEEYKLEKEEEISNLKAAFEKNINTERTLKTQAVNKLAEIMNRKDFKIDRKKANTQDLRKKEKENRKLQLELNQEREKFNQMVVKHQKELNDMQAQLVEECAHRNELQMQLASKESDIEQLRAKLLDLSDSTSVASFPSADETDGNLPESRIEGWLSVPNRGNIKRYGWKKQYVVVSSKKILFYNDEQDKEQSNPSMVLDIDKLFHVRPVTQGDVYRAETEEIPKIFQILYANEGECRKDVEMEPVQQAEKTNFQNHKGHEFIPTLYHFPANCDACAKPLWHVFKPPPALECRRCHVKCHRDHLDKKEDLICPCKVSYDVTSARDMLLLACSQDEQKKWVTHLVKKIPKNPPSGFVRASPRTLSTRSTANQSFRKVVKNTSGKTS
T27 sequence (P06239 whole entry): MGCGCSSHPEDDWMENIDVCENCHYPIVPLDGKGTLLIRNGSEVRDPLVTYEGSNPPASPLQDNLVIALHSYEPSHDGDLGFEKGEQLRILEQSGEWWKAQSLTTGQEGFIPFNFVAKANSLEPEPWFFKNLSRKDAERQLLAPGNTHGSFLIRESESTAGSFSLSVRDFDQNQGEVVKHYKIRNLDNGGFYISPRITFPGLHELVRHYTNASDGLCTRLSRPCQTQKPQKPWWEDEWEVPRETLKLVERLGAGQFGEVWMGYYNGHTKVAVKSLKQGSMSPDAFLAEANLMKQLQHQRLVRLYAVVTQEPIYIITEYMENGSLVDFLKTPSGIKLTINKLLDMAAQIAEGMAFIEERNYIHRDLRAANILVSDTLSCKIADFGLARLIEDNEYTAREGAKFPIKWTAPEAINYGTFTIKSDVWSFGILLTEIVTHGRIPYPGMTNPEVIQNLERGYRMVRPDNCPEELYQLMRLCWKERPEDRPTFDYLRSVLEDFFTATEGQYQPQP
T26 sequence (P49760 whole entry): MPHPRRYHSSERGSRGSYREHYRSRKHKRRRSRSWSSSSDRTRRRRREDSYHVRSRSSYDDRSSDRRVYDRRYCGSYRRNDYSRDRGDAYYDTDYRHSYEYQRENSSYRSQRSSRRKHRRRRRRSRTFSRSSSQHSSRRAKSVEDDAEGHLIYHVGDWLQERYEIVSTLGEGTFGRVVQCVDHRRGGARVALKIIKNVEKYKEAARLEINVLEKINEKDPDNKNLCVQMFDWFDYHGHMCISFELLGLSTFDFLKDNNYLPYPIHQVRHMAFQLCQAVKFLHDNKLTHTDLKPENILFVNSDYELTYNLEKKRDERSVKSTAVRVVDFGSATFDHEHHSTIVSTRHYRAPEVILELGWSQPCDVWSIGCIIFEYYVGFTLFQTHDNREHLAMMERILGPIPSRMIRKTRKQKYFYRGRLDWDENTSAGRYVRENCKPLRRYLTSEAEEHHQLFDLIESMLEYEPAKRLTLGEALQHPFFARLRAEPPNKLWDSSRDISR

| Compound | EC50 (MAPK8 (JNK1)) | EC50 (EGFR (ErbB1) T790M) | EC50 (FGFR1) | EC50 (MAPK11 (p38 beta)) | EC50 (PHKG1) | EC50 (TBK1) | EC50 (FER) | EC50 (ROS1 (ROS)) | EC50 (CSNK1A1 (CK1 alpha 1)) | EC50 (ALK) | EC50 (PASK) | EC50 (FGFR3 K650E) | EC50 (BLK) | EC50 (DYRK1A) | EC50 (IRAK4) | EC50 (STK22B (TSSK2)) | EC50 (ABL2 (Arg)) | EC50 (ROCK1) | EC50 (PRKCQ (PKC theta)) | EC50 (MET (cMet)) | other results |
| --- | --- | --- | --- | --- | --- | --- | --- | --- | --- | --- | --- | --- | --- | --- | --- | --- | --- | --- | --- | --- | --- |
| CN(C)CCCNc1ccc2ncn3c4ccc5[nH]ncc5c4c(=O)c1c23 [Compound (IV)] | > 5 µM | 4.01 µM | 3.57 µM | > 5 µM | 1.01 µM | > 5 µM | > 5 µM | 2.66 µM | > 5 µM | 4.63 µM | 1.23 µM | > 5 µM | 0.481 µM | 0.468 µM | 3.32 µM | > 5 µM | 2.87 µM | 0.487 µM | > 5 µM | > 5 µM | EC50 (BRSK1 (SAD1); BRSK1 (SAD1), estimated, abridged dose response curve, read-out: Kinase inhibitory activity EC50): 1.39 µM; EC50 (FES (FPS)): 2.25 µM; EC50 (EGFR (ErbB1) L861Q): > 5 µM; EC50 (TAOK2 (TAO1)): > 5 µM; EC50 (SRPK1): > 5 µM; EC50 (CLK2): 0.055 µM; EC50 (LCK): 0.345 µM |
| CCN(CC)CCNc1ccc2ncn3c4ccc(O)cc4c(=O)c1c23 [Symadex, 5-(2-(diethylamino)ethylamino)-8-hydroxy-6H-imidazo[4,5,1-de]acridin-6-one, reference compound] | > 5 µM | 2.9 µM | 2.39 µM | > 5 µM | 2.2 µM | > 5 µM | > 5 µM | > 5 µM | 3.48 µM | 2.48 µM | 4.32 µM | > 5 µM | 0.22 µM | 0.708 µM | 0.847 µM | > 5 µM | 3.21 µM | > 5 µM | > 5 µM | > 5 µM | EC50 (BRSK1 (SAD1)): 1.93 µM; EC50 (FES (FPS)): 1.05 µM; EC50 (EGFR (ErbB1) L861Q): > 5 µM; EC50 (TAOK2 (TAO1)): > 5 µM; EC50 (SRPK1): > 5 µM; EC50 (CLK2): 0.315 µM; EC50 (LCK): 0.824 µM |
